Measurements as given in patent US20110136762A1, “FUNGICIDAL PYRIDAZINES” (E.I. Du Pont de Nemours and Company, priority 2008, published 2011).
Marks after values point to notes of the source that are not given here.

Experiments:
Assay type in all cases: in vivo
Botrytis cinerea = experiment: Test F: tomato Botrytis, preventive spray on tomato seedlings, visual disease rating; details: 100 = 100% disease control, 0 = no disease control relative to controls; for pest or weed control at 200 ppm / pest or weed control at 40 ppm: Botrytis cinerea
Text: General protocol for preparing test suspensions for Tests A-F: […] The resulting test suspensions were then used in Tests A-F. The test suspensions were sprayed to the point of run-off on the test plants. All results are for 200 ppm (equivalent to a rate of 500 g/ha) except where followed by “*” which indicates 40 ppm. The test suspension was sprayed to the point of run-off on tomato seedlings. The following day the seedlings were inoculated with a spore suspension of Botrytis cinerea (the causal agent of tomato Botrytis) and incubated in saturated atmosphere at 20° C. for 48 h, and then moved to a growth chamber at 24° C. for 3 days, after which time visual disease ratings were made. […] A dash (-) indicates no test results. All results are for 200 ppm except where followed by “*”, which indicates 40 ppm.

Septoria nodorum = experiment: Test D: wheat glume blotch, preventive spray on wheat seedlings, visual disease rating; details: 100 = 100% disease control, 0 = no disease control relative to controls; for pest or weed control at 200 ppm / pest or weed control at 40 ppm: Parastagonospora nodorum
Text: General protocol for preparing test suspensions for Tests A-F: […] The resulting test suspensions were then used in Tests A-F. The test suspensions were sprayed to the point of run-off on the test plants. All results are for 200 ppm (equivalent to a rate of 500 g/ha) except where followed by “*” which indicates 40 ppm. The test suspension was sprayed to the point of run-off on wheat seedlings. The following day the seedlings were inoculated with a spore suspension of Septoria nodorum (the causal agent of wheat glume blotch) and incubated in a saturated atmosphere at 20° C. for 48 h, and then moved to a growth chamber at 20° C. for 7 days, after which time visual disease ratings were made. […] A dash (-) indicates no test results. All results are for 200 ppm except where followed by “*”, which indicates 40 ppm.

Septoria tritici = experiment: Test C: wheat leaf blotch, preventive spray on wheat seedlings, visual disease rating; details: 100 = 100% disease control, 0 = no disease control relative to controls; for pest or weed control at 200 ppm / pest or weed control at 40 ppm: Zymoseptoria tritici, 504 h
Text: General protocol for preparing test suspensions for Tests A-F: […] The resulting test suspensions were then used in Tests A-F. The test suspensions were sprayed to the point of run-off on the test plants. All results are for 200 ppm (equivalent to a rate of 500 g/ha) except where followed by “*” which indicates 40 ppm. The test suspension was sprayed to the point of run-off on wheat seedlings. The following day the seedlings were inoculated with a spore suspension of Septoria tritici (the causal agent of wheat leaf blotch) and incubated in saturated atmosphere at 20° C. for 48 h, and moved to a growth chamber at 20° C. for 19 additional days, after which time visual disease ratings were made. […] A dash (-) indicates no test results. All results are for 200 ppm except where followed by “*”, which indicates 40 ppm.

Erysiphe graminis = experiment: Test A: wheat powdery mildew, preventive spray on wheat seedlings, visual disease rating; details: 100 = 100% disease control, 0 = no disease control relative to controls; for pest or weed control at 200 ppm / pest or weed control at 40 ppm: Blumeria graminis, 192 h
Text: General protocol for preparing test suspensions for Tests A-F: […] The resulting test suspensions were then used in Tests A-F. The test suspensions were sprayed to the point of run-off on the test plants. All results are for 200 ppm (equivalent to a rate of 500 g/ha) except where followed by “*” which indicates 40 ppm. The test suspension was sprayed to the point of run-off on wheat seedlings. The following day the seedlings were inoculated with a spore dust of Erysiphe graminis, (the causal agent of wheat powdery mildew) and incubated in a growth chamber at 20° C. for 8 days, after which time visual disease ratings were made. […] A dash (-) indicates no test results. All results are for 200 ppm except where followed by “*”, which indicates 40 ppm.

[1] = system: Puccinia recondita f. sp. tritici; experiment: Test B: wheat leaf rust, preventive spray on wheat seedlings, visual disease rating; details: 100 = 100% disease control, 0 = no disease control relative to controls; for pest or weed control at 200 ppm / pest or weed control at 40 ppm: 192 h
Text: General protocol for preparing test suspensions for Tests A-F: […] The resulting test suspensions were then used in Tests A-F. The test suspensions were sprayed to the point of run-off on the test plants. All results are for 200 ppm (equivalent to a rate of 500 g/ha) except where followed by “*” which indicates 40 ppm. The test suspension was sprayed to the point of run-off on wheat seedlings. The following day the seedlings were inoculated with a spore suspension of Puccinia recondita f. sp. tritici (the causal agent of wheat leaf rust) and incubated in a saturated atmosphere at 20° C. for 24 h, and then moved to a growth chamber at 20° C. for 7 days, after which time visual disease ratings were made. […] A dash (-) indicates no test results. All results are for 200 ppm except where followed by “*”, which indicates 40 ppm.

Alternaria solani = experiment: Test E: tomato early blight, preventive spray on tomato seedlings, visual disease rating; details: 100 = 100% disease control, 0 = no disease control relative to controls; for pest or weed control at 200 ppm / pest or weed control at 40 ppm: Alternaria solani
Text: General protocol for preparing test suspensions for Tests A-F: […] The resulting test suspensions were then used in Tests A-F. The test suspensions were sprayed to the point of run-off on the test plants. All results are for 200 ppm (equivalent to a rate of 500 g/ha) except where followed by “*” which indicates 40 ppm. The test suspension was sprayed to the point of run-off on tomato seedlings. […] A dash (-) indicates no test results. All results are for 200 ppm except where followed by “*”, which indicates 40 ppm.

## COc1cc(OC)cc(-c2c(-c3ccccc3F)nnc(C)c2-c2c(F)cccc2F)c1 [Compound 22]
Botrytis cinerea; 40 ppm (marked *)
  Test F rating (disease control, tomato Botrytis): 95* %
Septoria nodorum; 40 ppm (marked *)
  Test D rating (disease control, wheat glume blotch): 84* %
Septoria tritici; 40 ppm (marked *)
  Test C rating (disease control, wheat leaf blotch): 97* %
Erysiphe graminis; 40 ppm (marked *)
  Test A rating (disease control, wheat powdery mildew): 99* %
[1]; 40 ppm (marked *)
  Test B rating (disease control, wheat leaf rust): 100* %
Alternaria solani; 40 ppm (marked *)
  Test E rating (disease control, tomato early blight): 100* %

## Cc1nnc(-c2ccccc2F)c(-c2ccc(Cl)cc2)c1-c1c(F)cc(F)cc1F [Compound 23]
Botrytis cinerea; 200 ppm
  Test F rating (disease control, tomato Botrytis): 86%
Septoria nodorum; 200 ppm
  Test D rating (disease control, wheat glume blotch): 0%
Septoria tritici; 200 ppm
  Test C rating (disease control, wheat leaf blotch): 97%
Erysiphe graminis; 200 ppm
  Test A rating (disease control, wheat powdery mildew): 99%
[1]; 200 ppm
  Test B rating (disease control, wheat leaf rust): 99%
Alternaria solani; 200 ppm
  Test E rating (disease control, tomato early blight): 96%

## COc1cc(OC)cc(-c2c(-c3ccccc3F)nnc(C)c2-c2c(F)cc(F)cc2F)c1 [Compound 24, 4-(3,5-dimethoxyphenyl)-3-(2-fluorophenyl)-6-methyl-5-(2,4,6-trifluorophenyl)pyridazine]
Botrytis cinerea; 200 ppm
  pest or weed control at 200 ppm: 94%
Septoria nodorum; 200 ppm
  pest or weed control at 200 ppm: 100%
Septoria tritici; 200 ppm
  pest or weed control at 200 ppm: 96%
Erysiphe graminis; 200 ppm
  pest or weed control at 200 ppm: 100%
[1]; 200 ppm
  pest or weed control at 200 ppm: 100%
Alternaria solani; 200 ppm
  pest or weed control at 200 ppm: 100%

## Cc1nnc(-c2ccccc2F)c(-c2cccc(F)c2)c1-c1c(F)cc(F)cc1F [Compound 25, 3-(2-fluorophenyl)-4-(3-fluorophenyl)-6-methyl-5-(2,4,6-trifluorophenyl)pyridazine]
Botrytis cinerea; 200 ppm
  pest or weed control at 200 ppm: 98%
Septoria nodorum; 200 ppm
  pest or weed control at 200 ppm: 100%
Septoria tritici; 200 ppm
  pest or weed control at 200 ppm: 96%
Erysiphe graminis; 200 ppm
  pest or weed control at 200 ppm: 99%
[1]; 200 ppm
  pest or weed control at 200 ppm: 100%
Alternaria solani; 200 ppm
  pest or weed control at 200 ppm: 100%

## COc1cc(OC)cc(-c2c(-c3ccccc3F)nnc(OC)c2-c2c(F)cc(F)cc2F)c1 [Compound 26, 4-(3,5-dimethoxyphenyl)-3-(2-fluorophenyl)-6-methoxy-5-(2,4,6-trifluorophenyl)pyridazine]
Botrytis cinerea; 200 ppm
  pest or weed control at 200 ppm: 99%
Septoria nodorum; 200 ppm
  pest or weed control at 200 ppm: 100%
Septoria tritici; 200 ppm
  pest or weed control at 200 ppm: 99%
Erysiphe graminis; 200 ppm
  pest or weed control at 200 ppm: 90%
[1]; 200 ppm
  pest or weed control at 200 ppm: 100%
Alternaria solani; 200 ppm
  pest or weed control at 200 ppm: 95%

## COc1cc(OC)cc(-c2c(-c3cc(F)c(F)cc3F)cnnc2-c2ccccc2F)c1 [Compound 27, 4-(3,5-dimethoxyphenyl)-3-(2-fluorophenyl)-5-(2,4,5-trifluorophenyl)pyridazine]
Botrytis cinerea; 200 ppm
  pest or weed control at 200 ppm: 100%
Septoria nodorum; 200 ppm
  pest or weed control at 200 ppm: 84%
Septoria tritici; 200 ppm
  pest or weed control at 200 ppm: 99%
Erysiphe graminis; 200 ppm
  pest or weed control at 200 ppm: 89%
[1]; 200 ppm
  pest or weed control at 200 ppm: 100%
Alternaria solani; 200 ppm
  pest or weed control at 200 ppm: 99%

## COc1cc(OC)cc(-c2c(-c3ccccc3F)nnc(C)c2-c2c(F)cc(OC)cc2F)c1 [Compound 28, 4-(2,6-difluoro-4-methoxyphenyl)-5-(3,5-dimethoxyphenyl)-6-(2-fluorophenyl)-3-methylpyridazine]
Botrytis cinerea; 40 ppm (marked *)
  pest or weed control at 40 ppm: 100%
Septoria nodorum; 40 ppm (marked *)
  pest or weed control at 40 ppm: 100%
Septoria tritici; 40 ppm (marked *)
  pest or weed control at 40 ppm: 97%
Erysiphe graminis; 40 ppm (marked *)
  pest or weed control at 40 ppm: 85%
[1]; 40 ppm (marked *)
  pest or weed control at 40 ppm: 100%
Alternaria solani; 40 ppm (marked *)
  pest or weed control at 40 ppm: 100%

## COc1cc(OC)cc(-c2c(-c3ccccc3F)nnc(C)c2-c2c(F)cc(OCCCN(C)C)cc2F)c1 [Compound 29, 3-[4-[5-(3,5-dimethoxyphenyl)-6-(2-fluorophenyl)-3-methyl-4-pyridazinyl]-3,5-difluorophenoxy]-N,N-dimethyl-1-propanamine]
Botrytis cinerea; 200 ppm
  pest or weed control at 200 ppm: 99%
Septoria nodorum; 200 ppm
  pest or weed control at 200 ppm: 92%
Septoria tritici; 200 ppm
  pest or weed control at 200 ppm: 98%
Erysiphe graminis; 200 ppm
  pest or weed control at 200 ppm: 92%
[1]; 200 ppm
  pest or weed control at 200 ppm: 100%
Alternaria solani; 200 ppm
  pest or weed control at 200 ppm: 99%

## CNCCCOc1cc(F)c(-c2c(C)nnc(-c3ccccc3F)c2-c2cc(OC)cc(OC)c2)c(F)c1 [Compound 30, 3-[4-[5-(3,5-dimethoxyphenyl)-6-(2-fluorophenyl)-3-methyl-4-pyridazinyl]-3,5-difluorophenoxy]-N-methyl-1-propanamine]
Botrytis cinerea; 200 ppm
  pest or weed control at 200 ppm: 100%
Septoria nodorum; 200 ppm
  pest or weed control at 200 ppm: 98%
Septoria tritici; 200 ppm
  pest or weed control at 200 ppm: 99%
Erysiphe graminis; 200 ppm
  pest or weed control at 200 ppm: 89%
[1]; 200 ppm
  pest or weed control at 200 ppm: 100%
Alternaria solani; 200 ppm
  pest or weed control at 200 ppm: 98%

## COc1cc(OC)c(Cl)c(-c2c(-c3ccccc3F)nnc(C)c2-c2c(F)cc(F)cc2F)c1 [Compound 31, 4-(2-chloro-3,5-dimethoxyphenyl)-3-(2-fluorophenyl)-6-methyl-5-(2,4,6-trifluorophenyl)pyridazine]
Botrytis cinerea; 40 ppm (marked *)
  pest or weed control at 40 ppm: 100%
Septoria nodorum; 40 ppm (marked *)
  pest or weed control at 40 ppm: 100%
Septoria tritici; 40 ppm (marked *)
  pest or weed control at 40 ppm: 99%
Erysiphe graminis; 40 ppm (marked *)
  pest or weed control at 40 ppm: 97%
[1]; 40 ppm (marked *)
  pest or weed control at 40 ppm: 100%
Alternaria solani; 40 ppm (marked *)
  pest or weed control at 40 ppm: 100%

## COc1cc(OC)c(Br)c(-c2c(-c3ccccc3F)nnc(C)c2-c2c(F)cc(F)cc2F)c1 [Compound 32]
Botrytis cinerea; 40 ppm (marked *)
  Test F rating (disease control, tomato Botrytis): 100* %
Septoria nodorum; 40 ppm (marked *)
  Test D rating (disease control, wheat glume blotch): 99* %
Septoria tritici; 40 ppm (marked *)
  Test C rating (disease control, wheat leaf blotch): 98* %
Erysiphe graminis; 40 ppm (marked *)
  Test A rating (disease control, wheat powdery mildew): 90* %
[1]; 40 ppm (marked *)
  Test B rating (disease control, wheat leaf rust): 100* %
Alternaria solani; 40 ppm (marked *)
  Test E rating (disease control, tomato early blight): 99* %

## COc1cc(-c2c(-c3ccccc3F)nnc(C)c2-c2c(F)cc(F)cc2F)cc(OC)c1Cl [Compound 33]
Botrytis cinerea; 40 ppm (marked *)
  Test F rating (disease control, tomato Botrytis): 99* %
Septoria nodorum; 40 ppm (marked *)
  Test D rating (disease control, wheat glume blotch): 0* %
Septoria tritici; 40 ppm (marked *)
  Test C rating (disease control, wheat leaf blotch): 95* %
Erysiphe graminis; 40 ppm (marked *)
  Test A rating (disease control, wheat powdery mildew): 0* %
[1]; 40 ppm (marked *)
  Test B rating (disease control, wheat leaf rust): 97* %
Alternaria solani; 40 ppm (marked *)
  Test E rating (disease control, tomato early blight): 61* %

## COc1cc(OC)cc(-c2c(-c3ccccc3)nnc(Cl)c2-c2c(F)cc(F)cc2F)c1 [Compound 34]
Botrytis cinerea; 200 ppm
  Test F rating (disease control, tomato Botrytis): 100%
Septoria nodorum; 200 ppm
  Test D rating (disease control, wheat glume blotch): 93%
Septoria tritici; 200 ppm
  Test C rating (disease control, wheat leaf blotch): 100%
Erysiphe graminis; 200 ppm
  Test A rating (disease control, wheat powdery mildew): 99%
[1]; 200 ppm
  Test B rating (disease control, wheat leaf rust): 100%
Alternaria solani; 200 ppm
  Test E rating (disease control, tomato early blight): 99%
